Among the data in US5385899A, “Aminoalkyl-substituted 5,6-dihydro-dibenz[b,e]azepine-6,11-dione-11-oximes” (Bayer Aktiengesellschaft, priority 1991, dated 1995) are IC50 values, retold here.

The test system of the experiment is HIV. In words: HIV infection in cell culture: suppression of virus-induced syncytia (PBLs or H9 cells). The settings on record: read-out: IC50 (suppression of 50% of virus-induced syncytia). It is filed as cell-based. As to the method: The HIV test was carried out with slight modifications according to the method of Pauwels et al. [cf. Journal of Virological Methods 20, (1988), 309-321].
Normal human blood lyphocytes (PBLs) were concentrated by means of Ficoll-Hypaque and stimulated with phytohaemagglutinin (90 μg/ml) and interleukin-2 (40 U/ml) in RPMI 1640 and 20% foetal calf serum. For infection with the infectious HIV, PBLs were pelleted and the cell pellet was then suspended in 1 ml of HIV virus adsorption solution and incubated for 1 hour at 37° C.
Alternatively, HIV-susceptible H9 cells were employed instead of normal human blood lymphocytes for testing the antiviral effects of the compounds according to the invention.
The virus adsorption solution was centrifuged and the infected cell pellet was taken up in growth medium so that a concentration of 1×10^5 cells per ml was established. The cells infected in this way were pipetted into the wells of 96-well microtiter plates to give 1×10^4 cells/well.
The first vertical row of the microtiter plate contained only growth medium and cells which had not been infected, but otherwise treated exactly as described above (cell control). The second vertical row of the microtiter plate contained only HIV-infected cells (virus control) in growth medium. The other wells contained the compounds according to the invention in differing concentrations, starting from the wells of the 3rd vertical row of the microtiter plate, from which the test substances were diluted 2^10 times in 2-fold steps.
The test batches were incubated at 37° C. until, in the untreated virus control, the syncytia formation typical of HIV occurred (between day 3 and 6 after infection), which was then microscopically assessed. Under these test conditions, in the untreated virus control about 20-50 syncytia resulted, while the untreated cell control contained no syncytia.
The IC50 values were determined as the concentration of the treated and infected cells at which 50% (about 10-20 syncytia) of the virus-induced syncytia were suppressed by treatment with the compound according to the invention.

[1] abbreviates: Human immunodeficiency virus 1, 72 h, HIV-infected PBLs or alternatively H9 cells, syncytia assessed microscopically between day 3 and 6 after infection, 37° C.

Where two headings read alike, the source gives them in different places.

The term IC50 denotes the concentration that gives 50% inhibition. As for `CN(C)CCON=c1c2cc(Cl)ccc2[nH]c(=O)c2ccccc12` (mixture of isomers) [Example 1, (E/Z)-2-Chloro-11-(2-dimethylaminoethoxyimino)-6-oxo-5,6-dihydro-11H-dibenz[b,e] azepine], under setting [1], the IC50 was 380 nM.

Consider `Cc1ccnc2c1NC(=O)c1cccnc1N2C1CC1` [BIRG 587, reference compound], for which the IC50 (Human immunodeficiency virus 1, H9, 72 h) is 90 nM.

Turning to `O=c1[nH]c2ccc(Cl)cc2c(=NOCCN2CCOCC2)c2ccccc12` [Example 3], the IC50 under setting [1] was 1500 nM.
